Test results taken from US11154515B2, “Pharmaceutical compositions comprising cannabidiol and beta-caryophyllene and methods for their use” (priority 2017, dated 2021).

Assays:
[1] = test system: pro-inflammatory cytokine expression (IL-1α, IL-1β, IL-6, IL-8, TNFα) in HaCaT keratinocytes; assay: Inflammatory epidermal keratinocyte models (SDS, Nickel, Carvacrol, SLIGRL, UVB, Poly p(I:C), SEB/TSLP), cytokine RT-qPCR; format: cell-based, human; details: seven keratinocyte inflammation models
[2] = test system: OXA-induced ear edema, ACD mouse model; assay: Oxazolone-induced allergic contact dermatitis model, ear edema; format: in vivo
Experimental: Prednisolone was solved in 1:1 of DMSO/saline and was administered topically (15-15 μL to the inner and outer surface of the ears). All other test compounds were solved in 96% ethanol. All solutions of all the concentrations were prepared freshly on the first day of every experiment and were stored at 4° C., then shaken properly before the treatments.
Anesthesia was induced by ketamine (Richter Gedeon, Budapest, Hungary) (100 mg/kg i.p., repeated as required) with xylazine (Lavet Ltd., Budapest, Hungary) (5 mg/kg i.m.). Animals were sensitized on two consecutive days by painting 2% oxazolone (50-50 μL, Merck KGaA) on the shaved abdomen. On the 6th day the right ears were smeared with 2% oxazolone (OXA) dissolved in 96% ethanol: 15-15 μL solution was applied on each of the inner and outer surfaces. Control ears were treated with 96% ethanol in the same way. Drug-treated groups were treated with 15-15 μL of drug solution smeared to the inner and outer side of the ears every 4 hrs of the experiment after oxazolone treatment. A schematic of the experimental protocol is provided in FIG. 24 and the experimental groups are defined below. • (a) Group 1: Ethanol-treated Controls: left ear: 96% ethanol, right ear: 2% oxazolone • (b) Group 2: 1 μM CBD • (c) Group 3: 10 μM CBD • (d) Group 4: 1 μM HU101 • (e) Group 5: 10 μMHU101
Ear thickness was measured with an engineer's micrometer, with 0.1 mm accuracy, before challenge with test agents and after the challenge at different time points. Data are expressed as % increase of ear thickness compared to the initial values.
Results are expressed as mean±SEM. Comparisons between different treatment groups were performed using two-way ANOVA followed by Sidak's post hoc test for skin thickness and one-way ANOVA followed by Bonferroni's post hoc test for MPO and vascular leakage. * p<0.05 was considered to be significant.

| SMILES | rank order of efficacy among the F-CBDs [1] | efficacy relative to the efficacy of prednisolone ([2]; 1 μM topical, depending on the time-point) | Effect in ACD mouse model, significance of ear edema difference ([2]; OXA + CBD 10 μM vs. OXA + HUF101 1 μM, 24 h) | Effect in ACD mouse model, significance of ear edema difference ([2]; OXA + CBD 10 μM vs. OXA + HUF101 1 μM, 48 h) | Effect in ACD mouse model, significance of ear edema difference ([2]; OXA + CBD 10 μM vs. OXA + HUF101 1 μM, 56 h) | Effect in ACD mouse model, significance of ear edema difference ([2]; OXA + CBD 10 μM vs. OXA + HUF101 10 μM, 48 h) | Effect in ACD mouse model, significance of ear edema difference ([2]; OXA + CBD 10 μM vs. OXA + HUF101 10 μM, 56 h) | Effect in ACD mouse model, significance of ear edema difference ([2]; OXA vs. OXA + HUF101 1 μM, 24 h) | Effect in ACD mouse model, significance of ear edema difference ([2]; OXA vs. OXA + HUF101 1 μM, 48 h) | Effect in ACD mouse model, significance of ear edema difference ([2]; OXA vs. OXA + HUF101 1 μM, 56 h) | Effect in ACD mouse model, significance of ear edema difference ([2]; OXA vs. OXA + HUF101 10 μM, 24 h) | Effect in ACD mouse model, significance of ear edema difference ([2]; OXA vs. OXA + HUF101 10 μM, 48 h) | Effect in ACD mouse model, significance of ear edema difference ([2]; OXA vs. OXA + HUF101 10 μM, 56 h) | anti-inflammatory actions on OXA-induced edema ([2]; both doses (1 μM and 10 μM), topical, all time-points) | effects compared with 1 μM or 10 μM CBD ([2]; both doses, statistically significant compared to 10 μM CBD) | efficacy of 1 μM compared with 10 μM ([2]; topical) | reduction in OXA-induced edema formation ([2]; positive control, topical) |
| --- | --- | --- | --- | --- | --- | --- | --- | --- | --- | --- | --- | --- | --- | --- | --- | --- | --- |
| C=C(C)[C@@H]1CCC(C)=C[C@H]1c1c(O)cc(CCCCC)c(F)c1O [HUF101] | HUF103>HU559a>HUF101 | 40-60% | ** (** p ≤ 0.01) | *** (*** p ≤ 0.001) | *** (*** p ≤ 0.001) | ** (** p ≤ 0.01) | *** (*** p ≤ 0.001) | *** (*** p ≤ 0.001) | *** (*** p ≤ 0.001) | *** (*** p ≤ 0.001) | *** (*** p ≤ 0.001) | *** (*** p ≤ 0.001) | * (* p ≤ 0.05) | statistically significant anti-inflammatory actions at all time-points | more robust effects | somewhat higher | – |
| C[C@]12C=CC(=O)C=C1CC[C@@H]1[C@@H]2[C@@H](O)C[C@@]2(C)[C@H]1CC[C@]2(O)C(=O)CO [Prednisolone, reference compound] | – | – | – | – | – | – | – | – | – | – | – | – | – | – | – | – | most robust reduction |
